Results taken from US20240101570A1 (AMGEN INC., priority 2020, published 2024).

Columns and labels:
HCT116 WT cells = test: HCT116 WT cell proliferation / viability (CellTiter-Glo, 6 days); type: cell-based; settings: Homo sapiens, HCT-116, 144 h, HCT116 WT cells, 6 days, CellTiter-Glo; read-out: HCT-116 WT IC50
Outline: (§1)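 IC50 values derive from sigmoidal dose-response fits, some with Hill slope fixed at −1 and top constrained to 100%, others from 4-parameter logistic models. They reflect CellTiter-Glo viability after 6 days of compound exposure at up to 10 or 50 μM.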

HCT116 MTAP null cells = test: HCT116 MTAP null cell proliferation / viability (CellTiter-Glo, 6 days); type: cell-based; settings: HCT116-MTAP null, 144 h, HCT116 MTAP null cells, 6 days, CellTiter-Glo; read-out: HCT-116 MTAP null IC50
Outline: as §1

Compound	IC50 (HCT116 WT cells) [µM]	IC50 (HCT116 MTAP null cells) [µM]
CCN(C(=O)c1ccc2nc(N)c3c(c2c1)COC3)[C@@H](C)c1ccc(C#N)cn1 (single isomer, unassigned) [Example 837]	> 50	7.08
CC(C)N(Cc1ccc(Br)nn1)C(=O)c1cc2c3c(c(N)nc2cn1)COC3 [Example 684, 4-amino-N-((6-bromo-3-pyridazinyl)methyl)-N-(2-propanyl)-1,3-dihydrofuro[3,4-c][1,7]naphthyridine-8-carboxamide]	> 10	0.342
CN(Cc1ccc(C2CC2)cn1)C(=O)c1ccc2nc(N)c3c(c2c1)COC3 [Example 323, 4-amino-N-((5-cyclopropyl-2-pyridinyl)methyl)-N-methyl-1,3-dihydrofuro[3,4-c]quinoline-8-carboxamide]	15	0.358
C[C@H](c1ccc(C(F)(F)F)nn1)N(C)C(=O)c1cc2c(cc1C(F)(F)F)nc(N)c1cnn(C)c12 (single isomer, unassigned) [Example 879]	12.3	0.181
CC[C@@H](c1cncnc1)N(Cc1ccc(S(F)(F)(F)(F)F)cc1)C(=O)c1cc2c(cn1)nc(N)c1cnn(C)c12 (single isomer, unassigned) [Example 872]	4.5	0.075
CN(Cc1ccc(C#N)cn1)C(=O)c1cc2c3c(c(N)nc2cc1Cl)COC3 [Example 472, 4-amino-7-chloro-N-((5-cyano-2-pyridinyl)methyl)-N-methyl-1,3-dihydrofuro[3,4-c]quinoline-8-carboxamide]	14.9	0.267
Nc1nc2ccc(C(=O)N(Cc3ccc(C(F)(F)F)cn3)Cc3ncccn3)cc2c2cnccc12 [Example 631, 5-amino-N-(2-pyrimidinylmethyl)-N-((5-(trifluoromethyl)-2-pyridinyl)methyl)benzo[c][2,6]naphthyridine-9-carboxamide]	0.215	0.01
N#Cc1ccc(CN(C(=O)c2ccc3nc(N)c4c(c3c2)COC4)C2CCCn3ncnc32)nc1 (racemic) [Example 448, 4-amino-N-((5-cyano-2-pyridinyl)methyl)-N-((8R)-5,6,7,8-tetrahydro[1,2,4]triazolo[1,5-a]pyridin-8-yl)-1,3-dihydrofuro[3,4-c]quinoline-8-carboxamide and 4-amino-N-((5-cyano-2-pyridinyl)methyl)-N-((8S)-5,6,7,8-tetrahydro[1,2,4]triazolo[1,5-a]pyridin-8-yl)-1,3-dihydrofuro[3,4-c]quinoline-8-carboxamide]	2.1	0.124
C[C@@H]1OCc2c1c(N)nc1cnc(C(=O)N(Cc3ccc(C(F)(F)F)cn3)C3CC3)cc21 [Example 318, (3S)-4-amino-N-cyclopropyl-3-methyl-N-((5-(trifluoromethyl)-2-pyridinyl)methyl)-1,3-dihydrofuro[3,4-c][1,7]naphthyridine-8-carboxamide]	36.3	4.93
CN(Cc1ccc(S(F)(F)(F)(F)F)cc1)C(=O)c1cc2c3c(c(N)nc2cc1Cl)COC3 [Example 513, 4-amino-7-chloro-N-methyl-N-(4-(pentafluoro-lambda~6~- sulfanyl)benzyl)-1,3-dihydrofuro[3,4-c]quinoline-8-carboxamide]	0.848	0.019
C[C@H](c1ncc(C(F)(F)F)cc1F)N(C)C(=O)c1cc2c(cc1F)nc(N)c1c2cnn1C (single isomer, unassigned) [Example 865]	2.81	0.059
CC(C)CN(Cc1ccc(C(F)(F)F)cn1)C(=O)c1ccc2nc(N)c3c(c2c1)CO[C@H]3CO (single isomer, unassigned) [Example 579]	5.62	0.348
CCN(C(=O)c1ccc2nc(N)c3c(c2c1)CO[C@@H]3C)[C@H](C)c1ccc(C(F)F)cn1 [Example 775, (3R)-4-amino-N-((1R)-1-(5-(difluoromethyl)-2-pyridinyl)ethyl)-N-ethyl-3-methyl-1,3-dihydrofuro[3,4-c]quinoline-8-carboxamide]	2.68	0.033
CC1OCc2c1c(N)nc1ccc(C(=O)N(CC3=CCCOC3)Cc3ccc(C(F)(F)F)cn3)cc21 (stereo not drawn) [Example 915, 4-amino-N-((5,6-dihydro-2H-pyran-3-yl)methyl)-3-methyl-N-((5-(trifluoromethyl)pyridin-2-yl)methyl)-1,3-dihydrofuro[3,4-c]quinoline-8-carboxamide]	4.2	0.029
CC1OCc2c1c(N)nc1ccc(C(=O)N(Cc3ccc(C(F)(F)F)cn3)C3CCOCC3C)cc21 (stereo not drawn) [Example 901, 4-amino-3-methyl-N-(3-methyltetrahydro-2H-pyran-4-yl)-N-((5-(trifluoromethyl)pyridin-2-yl)methyl)-1,3-dihydrofuro[3,4-c]quinoline-8-carboxamide]	0.43	0.042
CCN(Cc1cnc(C(F)(F)F)cn1)C(=O)c1cc2c3c(c(N)nc2cc1F)COC3 [Example 497, 4-amino-N-ethyl-7-fluoro-N-((5-(trifluoromethyl)-2-pyrazinyl)methyl)-1,3-dihydrofuro[3,4-c]quinoline-8-carboxamide]	3.52	0.25
C[C@H]1OCc2c1c(N)nc1cnc(C(=O)N(Cc3ccc(OC(F)F)nn3)CC3CC3)cc21 [Example 424, (3R)-4-amino-N-(cyclopropylmethyl)-N-((6-(difluoromethoxy)-3-pyridazinyl)methyl)-3-methyl-1,3-dihydrofuro[3,4-c][1,7]naphthyridine-8-carboxamide]	1.34	0.032
CCN(C(=O)c1ccc2nc(N)c3c(c2c1)CO[C@@H]3C)[C@H](C)c1ccc(C#N)cn1 (single isomer, unassigned) [Example 844]	6.23	0.105
C[C@H]1OCc2c1c(N)nc1cnc(C(=O)N(Cc3ccc(C(F)(F)F)cn3)c3cnn(C)c3)cc21 (single isomer, unassigned) [Example 828]	0.294	0.026
CC[C@H](c1ccc(C(F)(F)F)cn1)N(C)C(=O)c1cc2c3c(c(N)nc2cn1)COC3 (single isomer, unassigned) [Example 849]	24.4	0.879
CCN(Cc1ncn(C)n1)C(=O)c1ccc2nc(N)c3c(c2c1)CO[C@@H]3C [Example 720, (3R)-4-amino-N-ethyl-3-methyl-N-((1-methyl-1H-1,2,4-triazol-3-yl)methyl)-1,3-dihydrofuro[3,4-c]quinoline-8-carboxamide]	> 50	14.9
Nc1nc2ccc(C(=O)N(Cc3ccc(C(F)(F)F)cn3)C3CCCn4ncnc43)cc2c2c1COC2 [Example 447, 4-amino-N-((8R)-5,6,7,8-tetrahydro[1,2,4]triazolo[1,5-alpyridin-8-yl)-N-((5-(trifluoromethyl)-2-pyridinyl)methyl)-1,3-dihydrofuro[3,4-c]quinoline-8-carboxamide and 4-amino-N-((8S)-5,6,7,8-tetrahydro[1,2,4]triazolo[1,5-a]pyridin-8-yl)-N-((5-(trifluoromethyl)-2-pyridinyl)methyl)-1,3-dihydrofuro[3,4-c]quinoline-8-carboxamide]	0.256	0.031
CCOc1ccc(CN(CC2CC2)C(=O)c2cc3c4c(c(N)nc3cc2F)COC4)nn1 [Example 752, 4-amino-N-(cyclopropylmethyl)-N-((6-ethoxy-3-pyridazinyl)methyl)-7-fluoro-1,3-dihydrofuro[3,4-c]quinoline-8-carboxamide]	0.771	0.033
C[C@H]1OCc2c1c(N)nc1cnc(C(=O)N(C)Cc3ccc(C(F)(F)F)cn3)cc21 [Example 411, (3R)-4-amino-N,3-dimethyl-N-((5-(trifluoromethyl)-2-pyridinyl)methyl)-1,3-dihydrofuro[3,4-c][1,7]naphthyridine-8-carboxamide]	13.6	0.181
CC1OCc2c1c(N)nc1ccc(C(=O)N(Cc3ccc(C#N)cn3)C3CCCC3C#N)cc21 (stereo not drawn) [Example 898, 4-amino-N-(2-cyanocyclopentyl)-N-((5-cyanopyridin-2-yl)methyl)-3-methyl-1,3-dihydrofuro[3,4-c]quinoline-8-carboxamide]	0.29	0.052
C[C@H](c1ccc(C(F)(F)F)nn1)N(C)C(=O)c1ccc2nc(N)c3c(c2c1)CO[C@@H]3C (single isomer, unassigned) [Example 856]	8.48	0.087
C[C@H](c1ncccn1)N(Cc1ccc(C#N)c(Cl)n1)C(=O)c1ccc2nc(N)c3c(c2c1)COC3 [Example 679, 4-amino-N-((6-chloro-5-cyano-2-pyridinyl)methyl)-N-((1R)-1-(2-pyrimidinyl)ethyl)-1,3-dihydrofuro[3,4-c]quinoline-8-carboxamide]	0.108	0.005
CN(Cc1ccc(C(F)(F)C(F)(F)F)cc1)C(=O)c1ccc2nc(N)c3cnn(C)c3c2c1 [Example 561, 4-amino-N,1-dimethyl-N-(4-(pentafluoroethyl)benzyl)-1H-pyrazolo[4,3-c]quinoline-8-carboxamide]	5.33	0.089
CC(C)N(C(=O)c1cc2c3c(c(N)nc2cc1Cl)COC3)[C@@H](C)c1ccc(C(F)(F)F)cn1 (single isomer, unassigned) [Example 846]	3.94	0.212
CCN(Cc1ccc(C(F)(F)F)cn1)C(=O)c1ccc2nc(N)c3c(C)noc3c2c1 [Example 547, 4-amino-N-ethyl-3-methyl-N-((5-(trifluoromethyl)-2-pyridinyl)methyl)[1,2]oxazolo[4,5-c]quinoline-8-carboxamide]	24.5	0.668
